Assay results: patent US20220096389A1, “PHARMACEUTICAL COMPOSITIONS OF AMORPHOUS SOLID DISPERSIONS AND METHODS OF PREPARATION THEREOF” (Shenzhen Pharmacin Co., Ltd., priority 2020, published 2022)
Where two headings read alike, the source gives them in different places.

Tests used:
[1] = cited from earlier work; for Measured or Calculated pKas (first value): first value in cell; for Measured or Calculated pKas (second value): second value in cell
[2] = cited from earlier work
[3] = Kinetic solubility profiles of palbociclib ASD powders; assay type: physicochemical; details: aqueous buffer, thermodynamic from solid; pH 6.5 phosphate buffer, 37 C
[4] = test system: tumor cell lines expressing HER2 and EGFR; details: oral administration; cited from earlier work
[5] = biological target: HER4 (Homo sapiens, UniProt Q15303); details: cited from earlier work
Sequence of HER4 (Q15303 26-1308): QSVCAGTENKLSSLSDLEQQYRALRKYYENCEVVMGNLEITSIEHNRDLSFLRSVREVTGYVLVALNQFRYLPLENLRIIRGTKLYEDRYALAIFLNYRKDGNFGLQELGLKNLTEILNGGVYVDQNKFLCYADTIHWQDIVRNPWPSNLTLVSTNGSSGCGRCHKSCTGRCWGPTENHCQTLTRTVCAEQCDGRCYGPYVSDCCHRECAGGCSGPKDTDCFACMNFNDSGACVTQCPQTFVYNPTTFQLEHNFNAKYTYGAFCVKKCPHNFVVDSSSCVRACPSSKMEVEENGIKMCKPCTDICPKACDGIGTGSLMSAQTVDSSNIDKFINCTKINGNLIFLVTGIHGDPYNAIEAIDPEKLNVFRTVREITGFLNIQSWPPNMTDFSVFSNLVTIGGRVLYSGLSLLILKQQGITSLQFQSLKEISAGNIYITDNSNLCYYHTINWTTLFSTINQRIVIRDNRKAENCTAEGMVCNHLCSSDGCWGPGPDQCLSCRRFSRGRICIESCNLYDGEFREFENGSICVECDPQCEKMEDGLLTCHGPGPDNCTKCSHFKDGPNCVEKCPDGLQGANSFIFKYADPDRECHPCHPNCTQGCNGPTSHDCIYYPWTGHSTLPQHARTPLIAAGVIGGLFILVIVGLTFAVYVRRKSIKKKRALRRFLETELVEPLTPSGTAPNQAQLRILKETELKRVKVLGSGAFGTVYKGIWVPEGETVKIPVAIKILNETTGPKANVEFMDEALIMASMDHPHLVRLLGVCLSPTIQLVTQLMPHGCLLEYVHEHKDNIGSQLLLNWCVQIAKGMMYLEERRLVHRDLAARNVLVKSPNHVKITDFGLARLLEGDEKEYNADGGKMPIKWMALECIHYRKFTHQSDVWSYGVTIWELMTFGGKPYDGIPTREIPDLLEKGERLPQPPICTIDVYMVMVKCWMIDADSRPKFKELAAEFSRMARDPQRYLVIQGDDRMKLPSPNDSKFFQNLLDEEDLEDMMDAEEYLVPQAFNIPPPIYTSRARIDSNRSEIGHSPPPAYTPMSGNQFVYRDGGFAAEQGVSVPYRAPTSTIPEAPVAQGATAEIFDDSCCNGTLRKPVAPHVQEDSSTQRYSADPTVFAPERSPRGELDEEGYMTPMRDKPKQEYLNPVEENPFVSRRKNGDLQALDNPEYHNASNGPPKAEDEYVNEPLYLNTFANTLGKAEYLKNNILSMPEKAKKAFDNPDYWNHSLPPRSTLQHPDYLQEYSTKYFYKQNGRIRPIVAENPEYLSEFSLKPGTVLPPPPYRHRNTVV

[6] = biological target: Human Epidermal Growth Factor Receptor 2 (HER2) (Homo sapiens, UniProt P04626); details: cited from earlier work
Sequence of Human Epidermal Growth Factor Receptor 2 (HER2) (P04626 23-1255): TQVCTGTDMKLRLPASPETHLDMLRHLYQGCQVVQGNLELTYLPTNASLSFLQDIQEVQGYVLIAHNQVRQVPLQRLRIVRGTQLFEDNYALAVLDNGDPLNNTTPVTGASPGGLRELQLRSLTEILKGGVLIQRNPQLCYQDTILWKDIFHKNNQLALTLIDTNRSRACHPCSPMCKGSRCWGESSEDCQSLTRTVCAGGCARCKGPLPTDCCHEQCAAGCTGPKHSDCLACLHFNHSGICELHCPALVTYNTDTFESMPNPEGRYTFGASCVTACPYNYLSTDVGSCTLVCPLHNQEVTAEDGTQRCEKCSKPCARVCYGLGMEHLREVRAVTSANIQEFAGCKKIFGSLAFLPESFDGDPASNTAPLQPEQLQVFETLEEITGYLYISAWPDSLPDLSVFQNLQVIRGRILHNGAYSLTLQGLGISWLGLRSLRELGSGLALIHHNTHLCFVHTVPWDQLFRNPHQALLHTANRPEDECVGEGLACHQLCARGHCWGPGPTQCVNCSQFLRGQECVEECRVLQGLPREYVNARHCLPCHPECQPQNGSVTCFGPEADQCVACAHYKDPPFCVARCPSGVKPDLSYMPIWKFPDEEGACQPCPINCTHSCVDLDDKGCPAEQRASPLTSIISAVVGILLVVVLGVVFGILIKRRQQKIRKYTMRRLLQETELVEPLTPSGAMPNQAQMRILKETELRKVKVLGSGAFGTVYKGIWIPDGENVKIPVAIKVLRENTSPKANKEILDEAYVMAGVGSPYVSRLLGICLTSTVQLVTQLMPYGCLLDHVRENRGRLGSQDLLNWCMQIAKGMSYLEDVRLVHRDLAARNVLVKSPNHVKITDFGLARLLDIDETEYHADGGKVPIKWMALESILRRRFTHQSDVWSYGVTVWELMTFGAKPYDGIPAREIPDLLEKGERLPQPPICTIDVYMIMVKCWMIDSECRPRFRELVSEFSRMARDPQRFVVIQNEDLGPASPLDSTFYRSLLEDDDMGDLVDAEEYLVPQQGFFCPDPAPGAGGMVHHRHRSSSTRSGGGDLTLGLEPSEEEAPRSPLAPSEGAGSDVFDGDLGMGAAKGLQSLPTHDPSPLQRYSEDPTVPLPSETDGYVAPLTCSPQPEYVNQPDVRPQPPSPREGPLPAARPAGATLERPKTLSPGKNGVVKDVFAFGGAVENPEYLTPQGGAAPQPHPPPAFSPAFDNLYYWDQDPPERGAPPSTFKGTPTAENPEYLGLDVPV

[7] = test system: EGFR and/or HER2 expressing carcinoma cell lines; details: in vitro; cited from earlier work
[8] = test system: EGFR and HER2 autophosphorylation, downstream MAPK and AKT signaling pathways; details: in vitro; cited from earlier work

Structure (SMILES) | Measured or Calculated pKas (first value) [1] | Measured or Calculated pKas (second value) [1] | other results
O=C(O)Cc1ccccc1Nc1c(Cl)cccc1Cl [Diclofenac] | 4.16 |  | 
CCn1cc(C(=O)O)c(=O)c2cc(F)c(N3CCNCC3)nc21 [Enoxacin] | 5.05 ± 0.08 | 6.25 ± 0.05 | 
C#Cc1cccc(Nc2ncnc3cc(OCCOC)c(OCCOC)cc23)c1 [Erlotinib] | 5.4 |  | 
Cc1nnc(NS(=O)(=O)c2ccc(N)cc2)s1 [Sulfamethizole] | 1.86 ± 0.30 | 5.29 ± 0.04 | 
COc1cc2ncnc(Nc3ccc(F)c(Cl)c3)c2cc1OCCCN1CCOCC1 [Gefitinib] | 7.2 |  | 
CCC(C(=O)O)c1ccc(CC(C)C)cc1 (stereo not drawn) [Butibufen] | 4.64 |  | 
Cc1ccnc(NS(=O)(=O)c2ccc(N)cc2)n1 [Sulfamerazine] | 2.17 | 6.77 | 
CC(C)Cc1ccc(C(C)C(=O)O)cc1 (stereo not drawn) [Ibuprofen] | 4.51 |  | 
COc1cc(Cc2cnc(N)nc2N)cc(OC)c1OC [Trimethoprim] | 3.23 ± 0.30 | 6.76 ± 0.12 | 
CC[C@H]1OC(=O)[C@H](C)[C@@H](O[C@H]2C[C@@](C)(OC)[C@@H](O)[C@H](C)O2)[C@H](C)[C@@H](O[C@@H]2O[C@H](C)C[C@H](N(C)C)[C@H]2O)[C@](C)(OC)C[C@@H](C)C(=O)[C@H](C)[C@@H](O)[C@]1(C)O [Clarithromycin] | 7.25 |  | 
CC1COc2c(N3CCN(C)CC3)c(F)cc3c(=O)c(C(=O)O)cn1c23 (stereo not drawn) [Ofloxacin] | 6.22 ± 0.05 | 7.81 ± 0.08 | 
CC(=O)c1c(C)c2cnc(Nc3ccc(N4CCNCC4)cn3)nc2n(C2CCCC2)c1=O [Palbociclib, 6-acetyl-8-cyclopentyl-5-methyl-2-[(5-piperazin-1-ylpyridin-2-yl)amino]pyrido[2,3-d]pyrimidin-7-one] |  |  | solubility ([2]; pH value below 4): high; solubility ([2]; pH value higher than 4): less than 0.02 mg/ml; solubility [3]: < 10 µg/mL
Nc1ccc(S(=O)(=O)Nc2ncccn2)cc1 [Sulfadiazine] | 2.10 | 6.28 | 
CC[C@H]1OC(=O)C[C@@H](O)[C@H](C)[C@@H](O[C@@H]2O[C@H](C)[C@@H](O[C@H]3C[C@@](C)(O)[C@@H](O)[C@H](C)O3)[C@H](N(C)C)[C@H]2O)[C@@H](CC=O)C[C@@H](C)C(=O)/C=C/C(C)=C/[C@@H]1CO[C@@H]1O[C@H](C)[C@@H](O)[C@@H](OC)[C@H]1OC [Tylosin] | 3.31 ± 0.30 | 7.50 ± 0.13 | 
CC(=O)NS(=O)(=O)c1ccc(N)cc1 [Sulfacetamide] | 1.95 ± 0.11 | 5.30 ± 0.05 | 
C=CCOc1ccccc1OCC(O)CNC(C)C (stereo not drawn) [Oxprenolol] | 9.62 |  | 
CCOc1cc2ncc(C#N)c(Nc3ccc(OCc4ccccn4)c(Cl)c3)c2cc1NC(=O)/C=C/CN(C)C [Neratinib] |  |  | tumor growth in mouse xenograft models [4]: inhibited tumor growth; binding to HER4 [5]: irreversibly binds; binding to HER2 [6]: irreversibly binds; antitumor activity in carcinoma cell lines [7]: antitumor activity; EGFR and HER2 autophosphorylation, downstream MAPK and AKT signaling [8]: reduces
CC(C)(C)NC[C@H](O)COc1nsnc1N1CCOCC1 [Timolol] | 9.34 |  | 
CC[C@H]1OC(=O)[C@H](C)[C@@H](O[C@H]2C[C@@](C)(OC)[C@@H](O)[C@H](C)O2)[C@H](C)[C@@H](O[C@@H]2O[C@H](C)C[C@H](N(C)C)[C@H]2O)[C@](C)(O)C[C@@H](C)/C(=N\OCOCCOC)[C@H](C)[C@@H](O)[C@]1(C)O [Roxithromycin] | 9.17 ± 0.30 |  | 
CN(C)[C@@H]1C(O)=C(C(N)=O)C(=O)[C@@]2(O)C(O)=C3C(=O)c4c(O)ccc(Cl)c4[C@@H](O)[C@H]3C[C@@H]12 [Demeclocycline] | 3.37 ± 0.30 | 7.36 ± 0.03 | 
CN(C)[C@@H]1C(O)=C(C(N)=O)C(=O)[C@@]2(O)C(O)=C3C(=O)c4c(O)cccc4[C@@](C)(O)[C@H]3[C@H](O)[C@@H]12 [Oxytetracycline] | 3.04 | 8.00 | 
CCn1cc(C(=O)O)c(=O)c2cnc(N3CCNCC3)nc21 [Pipemidic acid] | 5.42 ± 0.05 | 8.18 ± 0.09 | 
[H]/N=C(/N)NS(=O)(=O)c1ccc(N)cc1 [Sulfaguanidine] | 1.55 | 11.24 | 

Structure (SMILES) | Measured or Calculated pKas (first value) [1] | Measured or Calculated pKas (second value) [1] | other results
CN1CCN(c2cc3c(cc2F)c(=O)c(C(=O)O)cn3-c2ccc(F)cc2)CC1 [Difloxacin] | 5.66 ± 0.04 | 7.24 ± 0.06 | 
CC[C@H]1OC(=O)[C@H](C)[C@@H](O[C@H]2C[C@@](C)(OC)[C@@H](O)[C@H](C)O2)[C@H](C)[C@@H](O[C@@H]2O[C@H](C)C[C@H](N(C)C)[C@H]2O)[C@](C)(O)C[C@@H](C)CN(C)[C@H](C)[C@@H](O)[C@]1(C)O [Azithromycin] | 7.34 |  | 
CN1CCN(c2c(F)cc3c(=O)c(C(=O)O)cn4c3c2OCN4C)CC1 [Marbofloxacin] | 5.69 ± 0.10 | 8.02 ± 0.20 | 
CN1C[C@@H]2C[C@H]1CN2c1cc2c(cc1F)c(=O)c(C(=O)O)cn2C1CC1 [Danofloxacin] | 6.07 ± 0.06 | 8.56 ± 0.07 | 
CN(C)[C@@H]1C(O)=C(C(N)=O)C(=O)[C@@]2(O)C(O)=C3C(=O)c4c(O)ccc(Cl)c4[C@@](C)(O)[C@H]3C[C@@H]12 [Chlortetracycline] | 3.33 ± 0.30 | 7.55 ± 0.02 | 
CC(=O)Nc1ccc(OCC(O)CNC(C)C)cc1 (stereo not drawn) [Practolol] | 9.41 |  | 
CC(CCc1ccccc1)NCC(O)c1ccc(O)c(C(N)=O)c1 (stereo not drawn) [Labetalol] | 7.35 |  | 
O=C(O)CCC(=O)c1ccc(-c2ccccc2)cc1 [Fenbufen] | 4.56 |  | 
COc1ccc2[nH]c([S+]([O-])Cc3ncc(C)c(OC)c3C)nc2c1 (stereo not drawn) [Omeprazole] | 4.14 | 8.90 | 
CCN1CCN(c2cc3c(cc2F)c(=O)c(C(=O)O)cn3C2CC2)CC1 [Enrofloxacin] | 5.88 ± 0.03 | 7.74 ± 0.03 | 
CC(C)NCC(O)COc1cccc2ccccc12 (stereo not drawn) [Propranolol] | 9.49 ± 0.2 |  | 
CCN(CC)CCOC(=O)c1ccc(N)cc1 [Procaine] | 2.28 ± 0.08 | 9.02 ± 0.01 | 
CN1CCN(c2c(F)cc3c(=O)c(C(=O)O)cn(CCF)c3c2F)CC1 [Fleroxacin] | 5.46 | 8.00 | 
Nc1ccc(S(=O)(=O)Nc2ccc(Cl)nn2)cc1 [Sulfachloropyridazine] | 1.87 ± 0.30 | 5.45 ± 0.06 | 
C[C@H]1c2cccc(O)c2C(=O)C2=C(O)[C@]3(O)C(=O)C(C(N)=O)=C(O)[C@@H](N(C)C)[C@@H]3[C@@H](O)[C@@H]21 [Doxycycline] | 3.02 ± 0.30 | 7.97 ± 0.15 | 
CC(C(=O)O)c1ccc2c(c1)[nH]c1ccc(Cl)cc12 (stereo not drawn) [Carprofen] | 4.63 |  | 
CC1(C)S[C@@H]2[C@H](NC(=O)[C@H](N)c3ccc(O)cc3)C(=O)N2[C@H]1C(=O)O [Amoxicillin] | 3.39 | 6.71 | 
Nc1ccc(S(=O)(=O)Nc2nccs2)cc1 [Sulfathiazole] | 2.08 | 7.07 | 
O=C(O)c1cn(-c2ccc(F)cc2)c2cc(N3CCNCC3)c(F)cc2c1=O [Sarafloxacin] | 5.62 ± 0.08 | 8.18 ± 0.09 | 
Cc1cc(C)nc(NS(=O)(=O)c2ccc(N)cc2)n1 [Sulfamethazine] | 2.28 | 7.42 | 
C=C1c2c(Cl)ccc(O)c2C(=O)C2=C(O)[C@]3(O)C(=O)C(C(N)=O)=C(O)[C@@H](N(C)C)[C@@H]3[C@@H](O)[C@H]12 [Meclocycline] | 4.05 ± 0.30 | 6.87 ± 0.39 | 
CC(C(=O)O)c1ccc(-c2ccccc2)c(F)c1 (stereo not drawn) [Flurbiprofen] | 4.35 |  | 
